Consider two compounds from article PMC9728906 (2022).

Assay [1] has as its system human telomeric G-quadruplex DNA, AG3(TTAGGG)3 (DNA, G4) AGGGTTAGGGTTAGGGTTAGGG
Put plainly: fluorescence titration, modified Scatchard, non-linear fit (r versus Cf). Conditions: 100 mM KCl; 10 mM Tris-HCl, 1 mM Na2EDTA, pH 7.4, ≤10% ethylene glycol; 5 µM compound; average over sites.

For assay [2] the test system is unchanged. Nature of the assay: fluorescence titration, Scatchard, two-line linear fit. As to conditions: 100 mM KCl; 10 mM Tris-HCl, 1 mM Na2EDTA, pH 7.4, ≤10% ethylene glycol; 5 µM compound; site 1 of 2.
Assay [3] concerns fluorescein-labelled telomeric G-quadruplex DNA (DNA, G4) AGGGTTAGGGTTAGGGTTAGGG
Nature of the assay: fluorescein fluorescence quenching. As to conditions: 100 mM KCl; 10 mM Tris-HCl, 1 mM Na2EDTA, pH 7.4; 2 µM DNA; more than 90% quenching.

Assay [4] concerns human telomeric G-quadruplex DNA, AG3(TTAGGG)3 (DNA, G4) AGGGTTAGGGTTAGGGTTAGGG
Put plainly: CD melting at 293 nm. As to conditions: 100 mM KCl; 10 mM Tris-HCl, 1 mM Na2EDTA, pH 7.4, 10% ethylene glycol; equimolar 3.93 µM compound and DNA (1:1).

Consider `CN(C)c1cc2c(Nc3ccc4c(cnn4Cc4ccccc4)c3)ncnc2cn1`, for which, in assay [1], the K came out at 2.65e+06 M⁻¹. The compound also came in with a K1 in assay [2] of 1.3e+08 M⁻¹. The binding result in assay [3] is recorded as “yes”. Further, in assay [4], the ΔTm turned out to be 9.9 °C.
The corresponding values for `COc1ccc(CCCn2ncc3c2nc(N)n2nc(-c4ccco4)nc32)cc1` are 700000 M⁻¹, 1.55e+07 M⁻¹, “yes” and 9.6 °C.
